The target of series [1] is Endochitinase B1 (Aspergillus fumigatus, UniProt Q873X9). Description: Inhibitory activity against Chitinase B1 (AfChiB1) using fuorometric assay with 4-methylumbelliferyl-b-D-N,N0-diacetylchitobiose as substrate.
The nature of series [2]: Maximum rate of metabolism of compound. Format: ADME. The settings on record: aspergillus fumigatus.
Series [3] relates to CNC(=O)NC(=N)NCCC[C@@H]1NC(=O)[C@@H](C)NC(=O)C[C@@H](C(=O)O)NC(=O)C[C@@H](C(=O)O)NC(=O)[C@H](Cc2ccccc2)N(C)C1=O. Description: Michaelis constant for compound binding to Chitinase B1. Particulars: Aspergillus fumigatus.

Among the data in ChEMBL document CHEMBL1143458, “An efficient synthesis of argifin: a natural product chitinase inhibitor with chemotherapeutic potential” (Bioorg Med Chem Lett, 2005) are Ki, Vmax and Km values, retold here.

For the compound `CNC(=O)NC(=N)NCCC[C@@H]1NC(=O)[C@@H](C)NC(=O)C[C@@H](C(=O)O)NC(=O)C[C@@H](C(=O)O)NC(=O)[C@H](Cc2ccccc2)N(C)C1=O` [ARGIFIN], the affinity in series [1] corresponds to a Ki of 17 nM. Also, the Vmax (in general, the rate approached at saturating substrate) in series [2] is recorded as 2.7 nM/s.
On to “Endochitinase B1 (Aspergillus fumigatus) (from UniProt Q873X9)”, for which, in series [3], the Km (as a rule, the substrate concentration at which the rate is half of its maximum) was 10.4 µM.
